Results published in EPA's ToxValDB 9.5 (doi:10.2903/j.efsa.2013.3352).

Experiments:
[1] = test system: Typhlodromus pyri; experiment: LR50; higher = less toxic; conditions: chronic/long-term; duration: 14 days; mortality
[2] = test system: Aphidius rhopalosiphi; experiment: LR50; higher = less toxic; conditions: acute; duration: 48 hours; mortality
[3] = test system: Daphnia magna; conditions: chronic/long-term; duration: 21 days; reproduction
[4] = test system: Tagia sp.
[5] = test system: Bibionidae; conditions: chronic/long-term; duration: 28 days; other
[6] = test system: Oryctolagus sp.; conditions: reproduction developmental
[7] = test system: Apis mellifera; conditions: acute, duration: 48 hours, mortality
[8] = test system: Rattus norvegicus; conditions: acute; oral; mortality
[9] = test system: Oncorhynchus mykiss; conditions: acute; duration: 96 hours; mortality
[10] = test system: Colinus virginianus; conditions: for LD50: acute, oral, mortality
[11] = test system: Cyprinodon variegatus; conditions: chronic/long-term; duration: 28 days; time to hatch

With `Nc1cc(Cl)nc(C(=O)O)c1Cl` [4-Amino-3,6-dichloro-2-pyridinecarboxylic acid] as the compound, how does the LR50 [1] read?
The LR50 was greater than 60 g/ha.

What about the LR50 [2] of the same compound?
Its LR50 is greater than 60 g/ha.

What about the NOEC [3] of the same compound?
The NOEC was 100 mg/L.

And the LC50 ([4]; acute, duration: 14 days, mortality)?
Its LC50 is greater than 1000 mg/kg.

And the NOEC ([4]; chronic/long-term, duration: 8 weeks)?
Its NOEC is 3.2 mg/kg.

And the NOEC [5]?
The NOEC was 130 mg/L.

What about the NOAEL ([6]; clinical signs) of the same compound?
The NOAEL was 26 mg/kg-day.

What about the NOAEL ([6]; no effects) of the same compound?
Its NOAEL is 256 mg/kg-day.

What about the LD50 ([7]; dermal) of the same compound?
Its LD50 is greater than 100 µg/piece.

And the LD50 ([7]; oral, unspecified)?
The LD50 was greater than 120 µg/piece.

What about the LD50 [8] of the same compound?
Its LD50 is greater than 5000 mg/kg-day.

And the LC50 [9]?
The LC50 was greater than 100 µg/mL.

What about the LD50 ([10]; diet) of the same compound?
The LD50 was greater than 1460 mg/kg-day.

What about the LD50 [10] of the same compound?
Its LD50 is greater than 2250 mg/kg-day.

And the NOEL ([10]; reproduction developmental, reproduction)?
Its NOEL is 190 mg/kg-day.

And the NOEC [11]?
Its NOEC is 0.1 mg/L.
